These results are taken from article PMC11621054, “Biological evaluation of semi-synthetic isoindolinone isomers produced by Stachybotrys chartarum” (Frontiers in Fungal Biology, 2024).

Structures are written as SMILES. “Also recorded” adds a separate entry of the source.

A short description of data set [1]: Hepatic phase I metabolism (oxidation), human microsomes. Format: in vitro ADME. The settings on record: 10 µM, 90 min. As to the method:
(§1) Liver microsomes and cytosol were obtained for two organisms, horse and human. Fresh horse liver was purchased locally cut to pieces of ca. 50 g each and frozen in liquid nitrogen. Until further usage, the liver was stored at -80 °C. The preparation of microsomes and cytosol was carried out according to Balk et al. ([Balk et al., 1984]), and the protein content was determined by Bradford assay with bovine serum albumin as a reference ([Bradford, 1976]). Human liver microsomes and cytosol (150 Donors Ultrapool™) were provided by Corning, Inc. (Corning, New York, NY, USA). Besides assay-specific positive controls, all assays included stability controls, moreover, matrix influences were considered. For oxidation, additional non-oxidation controls were included. Each experiment was performed in duplicate. All stated concentrations are final concentration values. The test compounds (acetoxystachybotrylactam acetate-tryptophan 2a, 2b and acetoxystachybotrylactam acetate-tryptamine 3a, 3b ) were extended by the most biologically active derivative previously characterized by our group (acetoxystachybotrylactam acetate-agmatine 4 ) ([Steinert et al., 2022]).
(§2) The phase I metabolism was investigated utilizing a NADPH- regenerating system. […] After centrifugation (4 °C, 10 min, 15,000 rpm), 150 µL of supernatant was diluted with 850 µL H2O, which was subsequently analyzed by HPLC-qToF-HRMS. […]

Data set [2] is described as follows: Hepatic phase II sulfation, horse cytosol. Format: in vitro ADME. The settings on record: 50 µM, 4 h. As to the method:
as §1
(§3) For phase II metabolism, potential sulfation and glucuronidation were investigated. For sulfation, the reaction mixture was pipetted as follows: first, ultrapure water was added and mixed with a 1 mM DTT solution (contains DTT, 100 mM phosphate buffer, 100 µM ascorbic acid, pH 7.4). Then, PAPS (100 µM) and the substance of interest (50 µM) were added, which was concluded by the addition of horse/human cytosol (10 mg protein/mL). For glucuronidation, first, ultrapure H2O, phosphate buffer (50 mM) and MgCl2 (5 mM) were added to the reaction vessel, followed by addition of the investigated substance (50 µM), UDPGA (5 µM), and horse/human microsomes (1 mg protein/mL), respectively. For both assays, the final volume was 100 µL which was subsequently incubated for 4 h at 37 °C in darkness. […] After centrifugation (4 °C, 10 min, 15,000 rpm), 150 µL of supernatant was diluted with 850 µL H2O, which was subsequently analyzed by HPLC-qToF-HRMS. […]

Data set [3] can be described thus: Hepatic phase I metabolism (oxidation), horse microsomes. Format: in vitro ADME. The settings on record: 10 µM, 90 min. As to the method:
as §1, §2

In data set [4] the test system is Human liver carcinoma cells (HepG2, HB-8065). On the set-up: method as in Steinert et al., 2022. The settings on record: 50 µM, 24 h; data of Figure 8 for compound 1 from previous investigation; ref Steinert et al., 2022; cited from earlier work.
The nature of data set [5]: Hepatic phase II glucuronidation, human microsomes. Particulars: 50 µM, 4 h; for glucuronidation: conversion and formation of glucuronides, in words: human microsomes. The format is in vitro ADME. The procedure:
as §1
For phase II metabolism, potential sulfation and glucuronidation were investigated. For sulfation, the reaction mixture was pipetted as follows: first, ultrapure water was added and mixed with a 1 mM DTT solution (contains DTT, 100 mM phosphate buffer, 100 µM ascorbic acid, pH 7.4). Then, PAPS (100 µM) and the substance of interest (50 µM) were added, which was concluded by the addition of horse/human cytosol (10 mg protein/mL). For glucuronidation, first, ultrapure H2O, phosphate buffer (50 mM) and MgCl2 (5 mM) were added to the reaction vessel, followed by addition of the investigated substance (50 µM), UDPGA (5 µM), and horse/human microsomes (1 mg protein/mL), respectively. For both assays, the final volume was 100 µL which was subsequently incubated for 4 h at 37 °C in darkness. Quenching and protein precipitation was achieved by adding 200 µL of cold MeCN (-20 °C). After centrifugation (4 °C, 10 min, 15,000 rpm), 150 µL of supernatant was diluted with 850 µL H2O, which was subsequently analyzed by HPLC-qToF-HRMS. For both experiments, 50 µM 7-hydroxycumarin served as positive control.
Chromatographic separation and mass spectrometric detection were identical to the parameters already described for the fragmentation experiments for phase I and phase II glucuronidation metabolism. For sulfation, the HPLC-qToF-HRMS was operated in negative ionization mode at -4.5 kV and otherwise identical source parameters as previously described. […]

For data set [6], the system named is HepG2. Description: Micronucleus assay (genotoxicity, OECD 487). Format: cell-based, human. The settings on record: 1 at 25 µM, 3a at 5 and 25 µM. The procedure:
The genotoxic effects of the AcAc ( 1 ) and its semi-synthetic products ( 2a , 2b; 3a , 3b ) were evaluated with the micronucleus assay, performed based on OECD Test guideline 487. HepG2 were cultivated in accordance with the descriptions of Kalinina et al. ([Kalinina et al., 2018]). The cells were seeded with 300,000 cells/slide on Polysine® slides (Epredia™ Polysine™ Microscopic Adhesion Slides, FisherScientific) in quadriPERM® culture dishes (Sarstedt, Nümbrecht, Germany) and cultivated for 24 h. Then, they were incubated with the test compounds (0.5-25 µM) in serum free DMEM for 5 h. As positive control 0.6 µM mitomycin C (MMC) was used. All tested compounds were dissolved in DMSO. Cells were washed with sterile phosphate-buffered saline (PBS) and incubated with 4 µg/mL cytokinesis inhibitor cytochalasin B (Santa Cruz Biotechnology, USA) in DMEM for 19 h. Slides were washed with PBS and cold MeOH. Afterwards, cells were fixated with MeOH at -20 °C for 1 h. […] Subsequently, cells were evaluated using a fluorescence microscope (Zeiss Axio Imager 2, Oberkochen, Germany) with filters of 365/445 nm and 546/575 nm. The micronucleus rate was evaluated by counting 1,000 binucleate cells and binucleate cells with micronuclei on each slide and calculating the proportion of binucleate cells containing one or more micronuclei. […]

A short description of data set [7]: Hepatic phase II sulfation, human cytosol. The settings on record: 50 µM, 4 h. The format is in vitro ADME. As to the method:
as §1, §3

Data set [8] can be described thus: Hepatic phase II glucuronidation, horse microsomes. The format is in vitro ADME. The settings on record: 50 µM, 4 h; for glucuronidation: conversion and formation of glucuronides, in words: horse microsomes. The procedure:
as §1, §3

Data set [9] concerns the target T1, human factor XIa (Homo sapiens, UniProt P03951).
T1 construct: human factor XIa, HFXIA, >95% purity; Molecular Innovations; purchased Molecular Innovations HFXIA
Kind of data set: Serine protease inhibition assay, fluorogenic substrate, FXIa. Format: biochemical. Particulars: endpoint RFU after 1 h, 25 °C. As to the method: (§4) The inhibitory activity of further semi-synthesized compounds toward the coagulation factor XIIa, thrombin, FXIa, FXa, and trypsin was measured by quantifying the hydrolysis rate of the fluorogenic substrates as reported previously ([Korff et al., 2020]; [Platte et al., 2021]; [Imberg et al., 2022]). Briefly, the activity was tested in buffer (10 mM Tris-Cl, 150 mM NaCl, 10 mM MgCl2·6 H2O, 1 mM CaCl2·2 H2O, 0.1% w/v BSA, 0.01% v/v Triton-X100, pH 7.4) utilizing clear flat-bottom, black polystyrene 96-well plates. The enzymes (human β-FXIIa, HFXIIAB, > 95% purity; Molecular Innovations, 2.5 nM – final concentration; human α-thrombin (active) protein, ABIN2127880, > 95% purity; antibodies-online, 0.25 nM – final concentration; human Factor Xa, HFXA, > 95% purity; Molecular Innovations, 2.5 nM – final concentration; human factor XIa, HFXIA, >95% purity; Molecular Innovations, 0.5 nM – final concentration porcine trypsin; Merck, 3.5 nM – final concentration) and the fluorogenic substrates for FXIIa: Boc-Gln-Gly-Arg-AMC (Pepta Nova, 25 µM – final concentration, Km = 167 µM); for thrombin: Boc Val Pro Arg AMC (Pepta Nova, 25 µM – final concentration, Km = 18 µM); for FXa: Boc-Ile-Glu-Gly-Arg-AMC (Pepta Nova, 25 µM – final concentration); for FXIa: Boc-Glu-(OBzl)-Ala-Arg-AMC (Pepta Nova, 25 µM – final concentration); for trypsin: Z-Gly-Gly-Arg-AMC (Sigma-Aldrich, 25 µM – final concentration) were used. The fluorogenic substrate solution was added into the wells followed by the addition of test-compounds solution, and the reaction was triggered by addition of the enzyme solution (final testing volume – 150 µL). In case of blank (substrate + buffer) and control (substrate + enzyme) wells, DMSO was added instead of the test-compounds’ solution. Fluorescence intensity was measured with Microplate Reader Mithras LB 940 (Berthold Technologies, excitation at 355 nm, emission at 460 nm) for a period of 1 h with a read every minute. The reactions were performed at 25 °C. To derive % of enzyme inhibition, endpoint RFU (single fluorescence reading after 1 h) was used. As a positive controls for thrombin, FXa, FXIIa, FXIa, and trypsin were used dabigatran (500 nM), rivaroxaban (500 nM), compound “39b” (500 nM) ([Platte et al., 2021]), Inhibitor 5t (8 µM) ([Imberg et al., 2022]), Inhibitor E (2 µM) ([Erbacher et al., 2024]), respectively. Semi-synthesized compounds were screened at 200 µM.

Data set [10] deals with T2, human β-FXIIa (Homo sapiens, UniProt P00748).
T2 construct: human β-FXIIa, HFXIIAB, > 95% purity; Molecular Innovations; purchased Molecular Innovations HFXIIAB
Description: Serine protease inhibition assay, fluorogenic substrate, FXIIa. Format: biochemical. The settings on record: endpoint RFU after 1 h, 25 °C. As to the method: as §4

The subject of data set [11] is Human liver carcinoma cells (HepG2, HB-8065). The settings on record: HepG2, 24 h incubation, resazurin.
Data set [12] is described as follows: Precipitation in cell culture medium. Format: physicochemical. Particulars: cell culture medium (DMEM), 0.5% DMSO.
The target in data set [13] is T3, human Factor Xa (Homo sapiens, UniProt P00742).
T3 construct: human Factor Xa, HFXA, > 95% purity; Molecular Innovations; purchased Molecular Innovations HFXA
Kind of data set: Serine protease inhibition assay, fluorogenic substrate, FXa. Format: biochemical. Particulars: 200 µM, endpoint RFU after 1 h, 25 °C. As to the method: (§5) The inhibitory activity of further semi-synthesized compounds toward the coagulation factor XIIa, thrombin, FXIa, FXa, and trypsin was measured by quantifying the hydrolysis rate of the fluorogenic substrates as reported previously ([Korff et al., 2020]; [Platte et al., 2021]; [Imberg et al., 2022]). Briefly, the activity was tested in buffer (10 mM Tris-Cl, 150 mM NaCl, 10 mM MgCl2·6 H2O, 1 mM CaCl2·2 H2O, 0.1% w/v BSA, 0.01% v/v Triton-X100, pH 7.4) utilizing clear flat-bottom, black polystyrene 96-well plates. […] Fluorescence intensity was measured with Microplate Reader Mithras LB 940 (Berthold Technologies, excitation at 355 nm, emission at 460 nm) for a period of 1 h with a read every minute. […] To derive % of enzyme inhibition, endpoint RFU (single fluorescence reading after 1 h) was used. […]

In data set [14] the target is T4, porcine trypsin (Sus scrofa, UniProt P00761).
T4 construct: porcine trypsin; Merck, 3.5 nM – final concentration; purchased Merck
Kind of data set: Serine protease inhibition assay, fluorogenic substrate, trypsin. Format: biochemical. Particulars: 200 µM, endpoint RFU after 1 h, 25 °C. The procedure: as §5

T1 sequence (P03951 388-625 limits assumed): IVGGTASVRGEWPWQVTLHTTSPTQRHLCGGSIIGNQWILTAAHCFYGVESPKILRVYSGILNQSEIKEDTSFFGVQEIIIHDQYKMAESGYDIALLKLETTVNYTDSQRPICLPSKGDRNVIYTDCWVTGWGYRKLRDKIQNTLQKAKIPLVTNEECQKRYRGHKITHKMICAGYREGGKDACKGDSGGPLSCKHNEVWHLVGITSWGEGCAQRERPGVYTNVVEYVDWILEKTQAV
T1 sequence (P03951 19-387 partner limits assumed): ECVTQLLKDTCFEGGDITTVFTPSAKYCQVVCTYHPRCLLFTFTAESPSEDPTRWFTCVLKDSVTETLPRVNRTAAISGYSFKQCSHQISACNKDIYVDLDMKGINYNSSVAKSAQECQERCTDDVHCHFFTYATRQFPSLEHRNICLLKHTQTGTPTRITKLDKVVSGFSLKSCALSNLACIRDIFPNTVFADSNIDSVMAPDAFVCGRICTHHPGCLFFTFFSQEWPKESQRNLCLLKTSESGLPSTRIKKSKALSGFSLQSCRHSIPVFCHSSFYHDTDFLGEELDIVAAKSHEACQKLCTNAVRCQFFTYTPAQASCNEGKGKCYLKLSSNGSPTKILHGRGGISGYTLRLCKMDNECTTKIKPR
T2 sequence (P00748 373-615 limits assumed, other chains not shown): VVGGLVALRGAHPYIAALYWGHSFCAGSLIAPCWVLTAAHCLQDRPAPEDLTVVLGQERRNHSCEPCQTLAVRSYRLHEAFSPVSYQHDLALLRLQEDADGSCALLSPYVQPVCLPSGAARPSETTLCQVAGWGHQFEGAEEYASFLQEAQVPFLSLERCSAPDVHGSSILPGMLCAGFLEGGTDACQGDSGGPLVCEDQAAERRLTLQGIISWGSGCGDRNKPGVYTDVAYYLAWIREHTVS
T3 sequence (P00742 235-488 limits assumed): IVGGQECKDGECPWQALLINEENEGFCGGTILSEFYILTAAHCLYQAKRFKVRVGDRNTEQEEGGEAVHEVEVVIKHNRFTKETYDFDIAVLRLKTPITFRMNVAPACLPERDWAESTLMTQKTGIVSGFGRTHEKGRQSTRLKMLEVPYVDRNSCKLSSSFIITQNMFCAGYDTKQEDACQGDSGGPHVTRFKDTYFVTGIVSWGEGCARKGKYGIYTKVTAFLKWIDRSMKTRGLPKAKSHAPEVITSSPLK
T3 sequence (P00742 41-179 partner limits assumed): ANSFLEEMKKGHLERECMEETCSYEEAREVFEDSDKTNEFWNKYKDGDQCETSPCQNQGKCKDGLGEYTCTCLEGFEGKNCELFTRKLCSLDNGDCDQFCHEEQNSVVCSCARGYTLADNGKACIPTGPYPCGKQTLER
T4 sequence (P00761 9-231): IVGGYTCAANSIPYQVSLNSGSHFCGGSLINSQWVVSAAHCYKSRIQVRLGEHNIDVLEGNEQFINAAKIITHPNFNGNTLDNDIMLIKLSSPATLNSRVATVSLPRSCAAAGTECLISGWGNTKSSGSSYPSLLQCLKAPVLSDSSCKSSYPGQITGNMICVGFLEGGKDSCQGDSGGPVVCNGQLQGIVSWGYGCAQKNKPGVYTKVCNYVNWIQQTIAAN

Turning to `CC(=O)O[C@@H]1[C@H](OC(C)=O)C[C@@]2(C)C(CC[C@@H](C)[C@]23Cc2c(O)cc(C=O)c(C=O)c2O3)C1(C)C` (stereo partly drawn) [Compound 1, acetoxystachybotrydial acetate], the “phase I conversion, in words” value in data set [1] and in data set [3] was “metabolized fastest” each time. Also, the “metabolism under sulfation conditions, in words” value in [2] and in data set [7] was “did undergo metabolism” throughout. Further, in data set [4], the HepG2 cell viability result is reported as “below 50%”. In addition, the “glucuronidation: conversion and formation of glucuronides, in words” value in data set [5] and in data set [8] was “did not at all” in each case. The “remaining parental compound, glucuronidation (phase II)” value is on record as “no 1 remaining in solution” in data set [5] (human, 37 °C, normalized to stability control, n.d. = not detected) and “no 1 remaining in solution” in [8] (horse, 37 °C, normalized to stability control, n.d. = not detected). Besides, the “cell damage seen in the micronucleus assay (slides excluded from evaluation)” value in [6] was “left the cells visibly damaged”.

Take `CC(=O)OC1CC2(C)C(CCC(C)C23Cc2c(O)cc4c(c2O3)CN(C(Cc2c[nH]c3ccccc23)C(=O)O)C4=O)C(C)(C)C1OC(C)=O` (stereo not drawn) [Compound 2a, Acetoxystachybotrylactam acetate-tryptophan]: the inhibition at 200 µM in data set [9] was 51%; in data set [10], 63%. For the same molecule, in [11], the “cytotoxicity (cell viability, T/C), in words” value is given as “more toxic”.

For `CC(=O)OC1CC2(C)C(CCC(C)C23Cc2c(O)cc4c(c2O3)C(=O)N(C(Cc2c[nH]c3ccccc23)C(=O)O)C4)C(C)(C)C1OC(C)=O` (stereo not drawn) [Compound 2b, Acetoxystachybotrylactam acetate-tryptophan], the inhibition at 200 µM in data set [9] came to 66%; in data set [10], 34%. In addition, the “glucuronidation: conversion and formation of glucuronides, in words” value in data set [5] and in [8] was “more readily converted; also recorded: more available for glucuronidation than 2a” each time. Further, the “cytotoxicity (cell viability, T/C), in words” value in data set [11] is “less cytotoxic”.

Take `CC(=O)OC1CC2(C)C(CCC(C)C23Cc2c(O)cc4c(c2O3)CN(CCc2c[nH]c3ccccc23)C4=O)C(C)(C)C1OC(C)=O` (stereo not drawn) [Compound 3a, Acetoxystachybotrylactam acetate-tryptamine]: the “concentration at which precipitation in cell culture medium starts” value in [12] was no less than 10 µM. Also, the inhibition at 200 µM in data set [9] was 9%. For the same molecule, the “inhibition of FXa” value in data set [13] was “no inhibition”. The inhibition of trypsin entry in data set [14] is given as “no inhibition”. In addition, the “cell damage seen in the micronucleus assay (slides excluded from evaluation)” value in data set [6] is given as “impaired cell viability even more”. Further, the “inhibition of FXIIa” value in data set [10] (200 µM) is recorded as “no inhibition”.
